Laboratory results from ChEMBL document CHEMBL3044976, “Screening and evaluation of rat kidney aldose reductase inhibitory activity of some pyridazine derivatives” (Med Chem Res, 2006).

Biological target: Aldo-keto reductase family 1 member B1 (Rattus norvegicus) (UniProt P07943)
Test: Inhibition of Rattus norvegicus albino (rat) kidney aldose reductase using DL-glyceraldehyde as substrate assessed as decrease in NADPH concentRattus norvegicus (rat) ion at 10^-4 M after 5 min by spectrophotometrically

Compound	inhibition [%]
CCOC(=O)Cn1nc(-n2nc(-c3ccccc3)cc2C)ccc1=O	0
Cc1cc(-c2ccccc2)nn1-c1ccc(=O)n(CC(=O)N2CCN(c3ccccc3F)CC2)n1	1.85
O=C(O)CCc1cc(-c2ccc(Cl)cc2)n(-c2ccc(Cl)nn2)n1	0.76
Cc1cc(C)n(-c2ccc(=O)n(CC(=O)N3CCN(c4ccccc4F)CC3)n2)n1	0
Cc1nn(-c2ccc(=O)n(CC(=O)N3CCCCC3)n2)c(C)c1Cl	0
Cc1cc(C)n(-c2ccc(=O)n(CC(=O)NCCc3ccccc3)n2)n1	0
Cc1cc(C)n(-c2ccc(=O)n(CC(=O)N3CCN(c4ccc(F)cc4)CC3)n2)n1	1.85
Cc1nn(-c2ccc(=O)n(CC(=O)NCCc3ccccc3)n2)c(C)c1Cl	0
Cc1cc(C)n(-c2ccc(=O)n(CC(=O)Nc3ccc(Cl)cc3)n2)n1	0
Cc1cc(-c2ccccc2)nn1-c1ccc(=O)n(CC(=O)Nc2ccc(Cl)cc2)n1	0
Cc1cc(-c2ccccc2)nn1-c1ccc(=O)n(CC(=O)Nc2cccnc2)n1	3.37
Cc1cc(-c2ccccc2)nn1-c1ccc(=O)n(CC(=O)O)n1	0.76
Cc1cc(C)n(-c2ccc(=O)n(CC(=O)O)n2)n1	7.73
O=C(CCc1cc(-c2ccc(Cl)cc2)n(-c2ccc(Cl)nn2)n1)Nc1ccc(Cl)cc1	0
O=C(CCc1cc(-c2ccc(Cl)cc2)n(-c2ccc(Cl)nn2)n1)N1CCCCC1	0
Cc1nn(-c2ccc(=O)n(CC(=O)Nc3ccc(F)cc3)n2)c(C)c1Cl	0
Cc1cc(C)n(-c2ccc(=O)n(CC(=O)Nc3cccnc3)n2)n1	0
Cc1nn(-c2ccc(=O)n(CC(=O)O)n2)c(C)c1Cl	0.98
Cc1cc(-c2ccccc2)nn1-c1ccc(=O)n(CC(=O)NCCc2ccccc2)n1	0
Cc1nn(-c2ccc(=O)n(CC(=O)Nc3ccc(Cl)cc3)n2)c(C)c1Cl	0
CCOC(=O)Cn1nc(-n2nc(C)c(Cl)c2C)ccc1=O	0
Cc1cc(-c2ccccc2)nn1-c1ccc(=O)n(CC(=O)N2CCN(c3ccc(F)cc3)CC2)n1	0
O=C(CCc1cc(-c2ccc(Cl)cc2)n(-c2ccc(Cl)nn2)n1)NCCc1ccccc1	0
CCOC(=O)Cn1nc(-n2nc(C)cc2C)ccc1=O	0
